Reference: patent US20220372448A1, “CELL LINE AND PRODUCING METHOD THEREOF” (University of Yamanashi, priority 2021, published 2022)

System: replicon replication in VeroE6/Rep #3 cells
Format: cell-based, SARS-CoV-2
Conditions: 72 hours

CC(C)C(=O)OC[C@H]1O[C@@H](n2ccc(NO)nc2=O)[C@H](O)[C@@H]1O [EIDD-2801, molnupiravir]
effectiveness rate = (Replicon replication level)/(Cell survival rate): about 0.2 | luciferase activity (index of the replicon replication level) compared with DMSO negative control: significantly decreased
